The values below are quoted from earlier work in patent US10213389B2 (priority 2005, dated 2019).

For “1,4:3,6-dianhydro-D-glucitol dinitrate [Isosorbide dinitrate]”, the “solubility in acetone, chloroform, alcohol and ether” value (acetone, chloroform, alcohol, ether) is “freely soluble”. Moreover, the solubility in water (water, described as sparingly soluble) is 1.0 g/900 ml.
